This is an account of results in article PMC8708872, “Discovery of a Novel Template, 7-Substituted 7-Deaza-4′-Thioadenosine Derivatives as Multi-Kinase Inhibitors” (Pharmaceuticals, 2021).

The test system of one experiment is ACHN. Briefly: Antiproliferative activity against ACHN. The format is cell-based. Conditions: Homo sapiens, renal cancer cell line expressing CK1δ and DYRK2, read-out: IC50 cell growth of ACHN.
The target in a further experiment is T1, CYP2D6 (Homo sapiens, UniProt P10635).
T1 construct: Human liver microsomes (0.25 mg/mL); from tissue; host or cells: human liver microsomes
The experiment can be described thus: CYP inhibition assay. It counts as in vitro ADME. Particulars: human liver microsomes. For orientation: Liver microsomes are a subcellular fraction often used to study metabolism.

The test system of the next experiment is SK-HEP-1. The experiment can be described thus: SRB cell proliferation inhibition assay. It counts as cell-based. Conditions: SK-HEP1, human liver cancer cells, 72 h. The procedure: (§1) Human lung cancer cells (A549), colorectal cancer (HCT116) cells, breast cancer cells (MDA-MB-231), liver cancer cells (SK-HEP-1), and prostate cancer cells (PC-3) were purchased from the American Type Culture Collection (Manassas, VA, USA). Human gastric cancer cells (SNU-638) were purchased from the Korean Cell Line Bank (Seoul, Korea). Cells were cultured in medium (Dulbecco’s modified Eagle’s medium for MDA-MB-231 and SK-HEP-1 cells; Roswell Park Memorial Institute 1640 for A549, HCT116, SNU-638, PC-3 cells) supplemented with penicillin-streptomycin and 10% fetal bovine serum at 37 °C in a humidified incubator with 5% carbon dioxide. Cells were seeded at a density of 4–7 × 10^4 cells/mL in 96-well culture plates, and then treated with indicated compounds for 72 h. At the end of the experiment, cells were fixed with 10% trichloroacetic acid (TCA) solution and subjected to sulforhodamine B (SRB) assay to determine cell proliferation. The percentage of cell proliferation was calculated with the following formula:Cell proliferation (%) = 100 × [(A treated − A zero day)/(A control − A zero day)], where A is the average absorbance. The IC50 values were calculated through non-linear regression analysis using TableCurve 2D v5.01 (Systat Software Inc., San Jose, CA, USA). All experiments were performed in triplicate and data shown are representative of two or three independent experiments.

Another experiment has as its system A549. Briefly: SRB cell proliferation inhibition assay. It counts as cell-based. Particulars: human lung cancer cells, 72 h. Here is the method: as §1
A further experiment has as its system SNU638. The experiment can be described thus: SRB cell proliferation inhibition assay. The format is cell-based. Conditions: SNU-638, human stomach cancer cells, 72 h. The procedure:
as §1

In another experiment the test system is MDA-MB-231. Briefly: SRB cell proliferation inhibition assay. The format is cell-based. Conditions: human breast cancer cells, 72 h. The procedure:
as §1

A further experiment relates to HCT116. The experiment can be described thus: SRB cell proliferation inhibition assay. The format is cell-based. Conditions: HCT-116, human colon cancer cells, 72 h. The procedure:
as §1

A further experiment deals with PC-3. Briefly: SRB cell proliferation inhibition assay. Particulars: human prostate cancer cells, 72 h. The format is cell-based. Here is the method: as §1

Molecules are shown by their SMILES.

T1 sequence (P10635 whole entry): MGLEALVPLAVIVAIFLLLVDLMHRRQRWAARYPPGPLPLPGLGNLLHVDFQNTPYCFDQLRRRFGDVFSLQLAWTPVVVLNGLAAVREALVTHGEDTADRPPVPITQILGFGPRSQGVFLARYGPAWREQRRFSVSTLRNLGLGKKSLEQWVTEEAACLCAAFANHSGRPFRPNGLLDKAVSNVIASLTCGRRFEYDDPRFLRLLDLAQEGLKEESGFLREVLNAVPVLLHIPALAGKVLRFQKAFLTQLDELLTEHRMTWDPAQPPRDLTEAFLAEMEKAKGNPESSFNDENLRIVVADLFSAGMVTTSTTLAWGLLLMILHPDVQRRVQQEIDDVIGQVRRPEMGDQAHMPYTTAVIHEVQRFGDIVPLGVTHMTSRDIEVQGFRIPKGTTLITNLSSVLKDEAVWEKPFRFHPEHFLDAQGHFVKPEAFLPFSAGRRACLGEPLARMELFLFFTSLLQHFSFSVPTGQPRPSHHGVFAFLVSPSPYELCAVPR

Broadly, the IC50 is the midpoint of a concentration-inhibition curve. As for `C#Cc1cn([C@@H]2S[C@H](CO)[C@@H](O)[C@H]2O)c2ncnc(N)c12` [Compound 1g, (2R,3R,4S,5R)-2-(4-Amino-5-ethynyl-7H-pyrrolo[2,3-d]pyrimidin-7-yl)-5-(hydroxymethyl)tetrahydrothiophene-3,4-diol], the IC50 in the experiment on ACHN was roughly 40 nM; against CYP2D6, greater than 20000 nM; in the experiment with SK-HEP-1, 50 nM; with A549 it was 60 nM; in the experiment on SNU638, 30 nM; in the experiment on MDA-MB-231, 50 nM. Also, the 50% inhibitory concentration (IC50) with HCT116 turned out to be 30 nM; in the experiment with PC-3 it was 4 nM.
